Consider eleven compounds from ChEMBL document CHEMBL1134153, “Novel bicyclic lactam inhibitors of thrombin: potency and selectivity optimization through P1 residues” (Bioorg Med Chem Lett, 2001).

One assay deals with Prothrombin (Rattus norvegicus, UniProt P18292). The experiment in a line: In vitro ability to inhibit the amidolytic activity of thrombin.
In assay [1] the test system is Rattus norvegicus. The experiment in a line: Tested for in vivo activated partial thromboplastin time in rat arterial thrombosis model. The assay is classed as functional.
Assay [2] concerns Rattus norvegicus. The experiment in a line: Tested for in vivo thrombin time in rat arterial thrombosis model. The assay is classed as functional.
Assay [3] has as its system Rattus norvegicus. The assay can be described thus: Tested for in vivo mean occlusion time in rat arterial thrombosis model. The assay is classed as functional.

Molecules are shown by their SMILES.

With `N[C@H]1CC[C@H](CNC(=O)C2CC[C@H]3CN(S(=O)(=O)Cc4ccccc4)CC(=O)N23)CC1` (some centres undefined), affinity at Prothrombin was put at a Ki of 100 nM.
`Cc1cc(C(=N)N)ccc1CNC(=O)[C@@H]1CC[C@H]2CN(S(=O)(=O)Cc3ccccc3)CC(=O)N21` came in with an APTT in the assay on Rattus norvegicus [1] of 0.9 min. The compound further yielded a TT in the assay with Rattus norvegicus [2] of 6.55 min. Further, the MOT with Rattus norvegicus [3] is recorded as 46 min. The compound further returned a Ki at Prothrombin of 7 nM.
Compound `N/C(=N/O)c1ccc(CNC(=O)[C@@H]2CC[C@H]3CN(S(=O)(=O)Cc4ccccc4)CC(=O)N32)cc1` registered a Ki on Prothrombin of more than 10000 nM.
The same measure, in the same setting: in the case of `N=C(N)NCCCCNC(=O)C1CC[C@H]2CN(C(=O)CCc3ccccc3)CC(=O)N12` (some centres undefined) it was 900 nM; in that of `O=C(NC[C@H]1CC[C@H](NO)CC1)[C@@H]1CC[C@H]2CN(S(=O)(=O)Cc3ccccc3)CC(=O)N21`, 1100 nM.
The same measure, in the same setting: in the case of `N=C(N)N1CCC(CNC(=O)[C@@H]2CC[C@H]3CN(S(=O)(=O)Cc4ccccc4)CC(=O)N32)CC1` it was 78 nM.
Turning to `N=C(N)c1ccc(CNC(=O)[C@@H]2CC[C@H]3CN(S(=O)(=O)Cc4ccccc4)CC(=O)N32)cc1`, the APTT with Rattus norvegicus [1] was determined as 0.967 min. The TT in the assay on Rattus norvegicus [2] turned out to be 7.58 min. Besides, the MOT in the assay with Rattus norvegicus [3] is given as more than 60 min. On Prothrombin, the inhibition constant Ki was found to be 8 nM.
With `N=C(N)N1CCC(CNC(=O)[C@@H]2CC[C@H]3CN(C(=O)CCc4ccccc4)CC(=O)N32)CC1`, the Ki at Prothrombin came out at 180 nM.
`N/C(=N\O)N1CCC(CNC(=O)[C@@H]2CC[C@H]3CN(S(=O)(=O)Cc4ccccc4)CC(=O)N32)CC1` came in with an APTT with Rattus norvegicus [1] of 0.633 min. In addition, the TT with Rattus norvegicus [2] was 3.85 min. In the assay on Rattus norvegicus [3], the MOT came to 48 min.
The compound `N=C(N)NCCC[C@H](NC(=O)[C@@H]1CC[C@H]2CN(C(=O)CCc3ccccc3)CC(=O)N21)C(=O)c1nccs1` displayed an inhibitory constant (Ki) at Prothrombin of 0.6 nM.
Same read-out and setting: to `O=C(NCc1ccc2nc[nH]c2c1)[C@@H]1CC[C@H]2CN(S(=O)(=O)Cc3ccccc3)CC(=O)N21` belongs 1000 nM.
